Reference: PubChem BioAssay AID248 (DTP/NCI, 2004)
Several values for one entry are separate records, joined by “and”; a condition that tells them apart may be missing. Identical values can stand only once. Toxic doses and inconclusive results are not listed. No stated cut-off is given here; in the data, active means T/C of 150% or more; inactive means T/C below 125%.

Test system: L1210 leukemia ip in BDF1 mice, survival T/C
Test: NCI In Vivo Anticancer Drug Screen. Data for tumor model L1210 Leukemia (intraperitoneal) in B6D2F1 (BDF1) mice
Details: endpoint: mean survival time, higher = longer survival
Method in brief: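 In this screen, tumor-bearing mice given compound are compared to those given vehicle, and their survival values are reported as a treated-to-control quotient.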

[1] = dose: 100.0 mg/kg/injection, schedule: Q04DX003 (ip), vehicle: saline
[2] = dose: 12.5 mg/kg/injection, schedule: Q01DX009 (ip), vehicle: Klucel (hydroxypropylcellulose) (HPC)
[3] = dose: 25.0 mg/kg/injection, schedule: Q04DX003 (ip), vehicle: Klucel (hydroxypropylcellulose) (HPC)
[4] = dose: 25.0 mg/kg/injection, schedule: Q01DX009 (ip), vehicle: Klucel (hydroxypropylcellulose) (HPC)
[5] = dose: 100.0 mg/kg/injection, schedule: Q01DX009 (ip), vehicle: Klucel (hydroxypropylcellulose) (HPC)
[6] = dose: 100.0 mg/kg/injection, schedule: Q01DX001 (ip), vehicle: other
[7] = dose: 200.0 mg/kg/injection, schedule: Q01DX001 (ip), vehicle: other
[8] = dose: 100.0 mg/kg/injection, schedule: Q01DX001 (ip), vehicle: saline
[9] = dose: 200.0 mg/kg/injection, schedule: Q01DX001 (ip), vehicle: saline

Measured: T/C

NC1=NC(c2ccc(Cl)cc2)N(c2ccc(S(=O)(=O)Nc3ncccn3)cc2)C(N)=N1 (configuration not stated)
inactive: [1] 103 % of control | dose: 200.0 mg/kg/injection, schedule: Q04DX003 (ip), vehicle: saline 96 % of control | dose: 400.0 mg/kg/injection, schedule: Q04DX003 (ip), vehicle: saline 100 % of control

CC1(C)CC(=O)CC(C)(C#N)C1 (configuration not stated)
inactive: dose: 6.25 mg/kg/injection, schedule: Q01DX009 (ip), vehicle: Klucel (hydroxypropylcellulose) (HPC) 97 % of control | [2] 99 % of control | dose: 12.5 mg/kg/injection, schedule: Q04DX003 (ip), vehicle: Klucel (hydroxypropylcellulose) (HPC) 91 % of control | [3] 93 % of control

CC1C=C(Br)C(=O)c2ccccc2N1S(C)(=O)=O (configuration not stated)
inactive: dose: 6.0 mg/kg/injection, schedule: Q04DX003 (ip), vehicle: Klucel (hydroxypropylcellulose) (HPC) 98 % of control | dose: 12.0 mg/kg/injection, schedule: Q04DX003 (ip), vehicle: Klucel (hydroxypropylcellulose) (HPC) 92 % of control | [2] 102 % of control | [4] 94 % of control | [3] 93 % of control and 96 % of control

[O-][n+]1onc2ccc(Cl)cc21
inactive: [4] 101 % of control | dose: 50.0 mg/kg/injection, schedule: Q01DX009 (ip), vehicle: Klucel (hydroxypropylcellulose) (HPC) 98 % of control | [5] 95 % of control

C#CCCCCCCl
inactive: [6] 95 % of control | [7] 102 % of control

C[N+](C)(CCN1C(=O)c2ccc3c4c(ccc(c24)C1=O)C(=O)N(CC[N+](C)(C)Cc1ccccc1)C3=O)Cc1ccccc1
inactive: dose: 0.1 mg/kg/injection, schedule: Q01DX001 (ip), vehicle: saline 105 % of control | dose: 0.2 mg/kg/injection, schedule: Q01DX001 (ip), vehicle: saline 101 % of control | dose: 0.4 mg/kg/injection, schedule: Q01DX001 (ip), vehicle: saline 110 % of control | dose: 0.78 mg/kg/injection, schedule: Q01DX001 (ip), vehicle: saline 106 % of control

Cc1cc(C)c(C(=O)/C=C(\N)C(=O)c2c(C)cc(C)cc2C)c(C)c1
inactive: dose: 50.0 mg/kg/injection, schedule: Q04DX003 (ip), vehicle: carboxymethylcellulose (CMC) 110 % of control | dose: 100.0 mg/kg/injection, schedule: Q04DX003 (ip), vehicle: carboxymethylcellulose (CMC) 98 % of control | dose: 200.0 mg/kg/injection, schedule: Q04DX003 (ip), vehicle: carboxymethylcellulose (CMC) 104 % of control

O=[N+]([O-])c1ccc(Oc2cccc([N+](=O)[O-])c2)cc1
inactive: dose: 222.0 mg/kg/injection, schedule: Q01DX Z (ip), vehicle: methylcellulose (MC) 90 % of control | dose: 333.0 mg/kg/injection, schedule: Q01DX Z (ip), vehicle: methylcellulose (MC) 95 % of control | dose: 500.0 mg/kg/injection, schedule: Q01DX Z (ip), vehicle: methylcellulose (MC) 92 % of control

OCC1C2C=CC(C3C=CC32)C1CO (configuration not stated)
inactive: dose: 100.0 mg/kg/injection, schedule: Q04DX002 (ip), vehicle: Klucel (hydroxypropylcellulose) (HPC) 98 % of control | dose: 200.0 mg/kg/injection, schedule: Q04DX002 (ip), vehicle: Klucel (hydroxypropylcellulose) (HPC) 98 % of control | dose: 400.0 mg/kg/injection, schedule: Q04DX002 (ip), vehicle: Klucel (hydroxypropylcellulose) (HPC) 113 % of control

CN=NC(=O)c1cccc2c1-c1ccccc1C2=O
inactive: [6] 87 % of control | [7] 96 % of control | dose: 400.0 mg/kg/injection, schedule: Q01DX001 (ip), vehicle: other 93 % of control

CN=C(N)N/N=C/C(C)=N/NC(N)=NC
inactive: dose: 15.0 mg/kg/injection, schedule: Q01DX Z (ip), vehicle: saline 96 % of control | dose: 30.0 mg/kg/injection, schedule: Q01DX Z (ip), vehicle: saline 106 % of control | dose: 60.0 mg/kg/injection, schedule: Q01DX Z (ip), vehicle: saline 104 % of control | dose: 120.0 mg/kg/injection, schedule: Q01DX Z (ip), vehicle: saline 95 % of control

Nc1cc2scnc2c(N)n1
inactive: dose: 100.0 mg/kg/injection, schedule: Q01DX001 (ip), vehicle: Klucel (hydroxypropylcellulose) (HPC) 94 % of control | dose: 200.0 mg/kg/injection, schedule: Q01DX001 (ip), vehicle: Klucel (hydroxypropylcellulose) (HPC) 91 % of control | dose: 400.0 mg/kg/injection, schedule: Q01DX001 (ip), vehicle: Klucel (hydroxypropylcellulose) (HPC) 86 % of control

O=C(O)c1c(O)cc(=O)oc1-c1ccccc1Cl
inactive: dose: 75.0 mg/kg/injection, schedule: Q01DX001 (ip), vehicle: saline 97 % of control | dose: 150.0 mg/kg/injection, schedule: Q01DX001 (ip), vehicle: saline 101 % of control | dose: 300.0 mg/kg/injection, schedule: Q01DX001 (ip), vehicle: saline 96 % of control

O=[N+]([O-])c1cccc2nc(N/N=C/c3ccccc3O)ccc12
inactive: dose: 25.0 mg/kg/injection, schedule: Q01DX009 (ip), vehicle: water 89 % of control | dose: 50.0 mg/kg/injection, schedule: Q01DX009 (ip), vehicle: water 94 % of control | dose: 200.0 mg/kg/injection, schedule: Q01DX009 (ip), vehicle: water 94 % of control | dose: 400.0 mg/kg/injection, schedule: Q01DX009 (ip), vehicle: water 93 % of control

COC1OC2COC(c3ccccc3)OC2C(OS(=O)(=O)c2ccc(C)cc2)C1OC (configuration not stated)
inactive: dose: 100.0 mg/kg/injection, schedule: Q04DX002 (ip), vehicle: saline with Tween-80 107 % of control | dose: 200.0 mg/kg/injection, schedule: Q04DX002 (ip), vehicle: saline with Tween-80 89 % of control | dose: 400.0 mg/kg/injection, schedule: Q04DX002 (ip), vehicle: saline with Tween-80 93 % of control

CNC1C(c2ccc(C)cc2)=NN(c2ccccc2)C1c1ccccc1 (configuration not stated)
inactive: dose: 100.0 mg/kg/injection, schedule: Q01DX001 (ip), vehicle: saline sonified 95 % of control | dose: 200.0 mg/kg/injection, schedule: Q01DX001 (ip), vehicle: saline sonified 95 % of control | dose: 400.0 mg/kg/injection, schedule: Q01DX001 (ip), vehicle: saline sonified 89 % of control

C=CCC(O)CCC (configuration not stated)
inactive: dose: 100.0 mg/kg/injection, schedule: Q01DX009 (ip), vehicle: saline with Tween-80 89 % of control | dose: 100.0 mg/kg/injection, schedule: Q04DX003 (ip), vehicle: saline with Tween-80 97 % of control | dose: 200.0 mg/kg/injection, schedule: Q01DX009 (ip), vehicle: saline with Tween-80 90 % of control | dose: 200.0 mg/kg/injection, schedule: Q04DX003 (ip), vehicle: saline with Tween-80 100 % of control | dose: 400.0 mg/kg/injection, schedule: Q01DX009 (ip), vehicle: saline with Tween-80 89 % of control | dose: 400.0 mg/kg/injection, schedule: Q04DX003 (ip), vehicle: saline with Tween-80 100 % of control

CCC[As](=O)(O)CCC
inactive: dose: 25.0 mg/kg/injection, schedule: Q01DX009 (ip), vehicle: saline 107 % of control | dose: 50.0 mg/kg/injection, schedule: Q01DX009 (ip), vehicle: saline 112 % of control | [1] 111 % of control

CC(=O)Oc1ccc(Cl)cc1/C=C\C=O
inactive: [8] 100 % of control | [9] 101 % of control

O=C(C=P(c1ccccc1)(c1ccccc1)c1ccccc1)c1ccc(Br)cc1
inactive: dose: 50.0 mg/kg/injection, schedule: Q01DX001 (ip), vehicle: carboxymethylcellulose (CMC) 99 % of control | dose: 100.0 mg/kg/injection, schedule: Q01DX001 (ip), vehicle: carboxymethylcellulose (CMC) 99 % of control | dose: 200.0 mg/kg/injection, schedule: Q01DX001 (ip), vehicle: carboxymethylcellulose (CMC) 96 % of control | dose: 400.0 mg/kg/injection, schedule: Q01DX001 (ip), vehicle: carboxymethylcellulose (CMC) 99 % of control

O=S(=O)(CBr)CBr
inactive: [8] 98 % of control | [9] 95 % of control | dose: 400.0 mg/kg/injection, schedule: Q01DX001 (ip), vehicle: saline 112 % of control

CCCCCC1CCC(O)CC1 (configuration not stated)
inactive: [5] 95 % of control | dose: 100.0 mg/kg/injection, schedule: Q04DX003 (ip), vehicle: Klucel (hydroxypropylcellulose) (HPC) 106 % of control | dose: 200.0 mg/kg/injection, schedule: Q01DX009 (ip), vehicle: Klucel (hydroxypropylcellulose) (HPC) 90 % of control | dose: 200.0 mg/kg/injection, schedule: Q04DX003 (ip), vehicle: Klucel (hydroxypropylcellulose) (HPC) 111 % of control | dose: 400.0 mg/kg/injection, schedule: Q01DX009 (ip), vehicle: Klucel (hydroxypropylcellulose) (HPC) 105 % of control | dose: 400.0 mg/kg/injection, schedule: Q04DX003 (ip), vehicle: Klucel (hydroxypropylcellulose) (HPC) 103 % of control
